According to US20230357179A1, “RAF KINASE INHIBITORS AND METHODS OF USE THEREOF” (Deciphera Pharmaceuticals, LLC, priority 2021, published 2023):
pIC50: −log10 of the molar value.

What was measured:
[1] = target: T1, B-Raf (V600E) kinase (Homo sapiens, UniProt P15056, V600E); assay: Biochemical assay for B-Raf (V600E).1 (coupled pyruvate kinase/lactate dehydrogenase); conditions: read-out: BRAF V600E.1 IC50
T1 construct: B-Raf (V600E) residues 416-766 with a; GST (N); purchased SignalChem
Method: Biochemical Assay for B-Raf (V600E).1
Activity of B-Raf (V600E) (SEQ. ID NO: 4) kinase was determined spectroscopically using a coupled pyruvate kinase/lactate dehydrogenase assay that continuously monitors the ATP hydrolysis-dependent oxidation of NADH (e.g., Schindler et al., Science, 2000, 289, 1938-1942). Assays were conducted in 384-well plates (100 μL final volume) using 0.03 nM B-Raf (SignalChem), 1.5 units pyruvate kinase, 2.1 units lactate dehydrogenase, 1 mM phosphoenol pyruvate, 0.28 mM NADH, 30.1 nM MEK (SignalChem), and 1 mM ATP in assay buffer (100 mM Tris, pH 7.5, 15 mM MgCl2, 0.5 mM DTT, 0.1% octyl-glucoside, 0.002% (w/v) BSA, and 0.002% Triton X-100). Inhibition of B-Raf (V600E) was measured by adding serial diluted test compound (final assay concentration of 1% DMSO). A decrease in absorption at 340 nm was monitored continuously for 6 h at 30° C. on a multi-mode microplate reader (BioTek). The reaction rate was calculated using the 3 to 4 h time frame. The reaction rate at each concentration of compound was converted to percent inhibition using controls (i.e., reaction with no test compound and reaction with a known inhibitor) and IC50 values were calculated by fitting a four-parameter sigmoidal curve to the data using Prism (GraphPad software).

[2] = target: T2, A-Raf kinase (Homo sapiens, UniProt P10398, Y301D/Y302D); assay: Biochemical assay for A-Raf.1 (coupled pyruvate kinase/lactate dehydrogenase); conditions: read-out: ARAF.1 IC50
T2 construct: purchased Sigma
T2 sequence (P10398 with tags, fused parts or gaps Y301D/Y302D): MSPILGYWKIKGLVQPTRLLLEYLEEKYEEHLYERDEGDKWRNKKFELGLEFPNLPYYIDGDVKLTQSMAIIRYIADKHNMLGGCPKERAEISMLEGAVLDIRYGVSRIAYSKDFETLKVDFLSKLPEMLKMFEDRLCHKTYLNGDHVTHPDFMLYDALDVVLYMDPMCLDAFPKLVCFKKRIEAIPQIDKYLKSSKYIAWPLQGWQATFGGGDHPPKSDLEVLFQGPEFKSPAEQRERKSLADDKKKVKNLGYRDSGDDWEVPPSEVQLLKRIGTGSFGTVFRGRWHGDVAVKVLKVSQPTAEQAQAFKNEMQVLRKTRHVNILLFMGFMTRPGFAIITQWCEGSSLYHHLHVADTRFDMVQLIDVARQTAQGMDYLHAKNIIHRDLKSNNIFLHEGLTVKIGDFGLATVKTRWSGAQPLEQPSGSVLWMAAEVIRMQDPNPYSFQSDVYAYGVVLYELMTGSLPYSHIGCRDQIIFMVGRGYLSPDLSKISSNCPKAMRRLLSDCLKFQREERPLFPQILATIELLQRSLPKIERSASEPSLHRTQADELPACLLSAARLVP
Method: Biochemical assay for A-Raf.1
(§1) Activity of A-Raf kinase (SEQ. ID NO. 1) was determined spectroscopically using a coupled pyruvate kinase/lactate dehydrogenase assay that continuously monitors the ATP hydrolysis-dependent oxidation of NADH (e.g., Schindler et al., Science, 2000, 289, 1938-1942). Assays were conducted in 384-well plates (100 μL final volume) using 5.55 nM A-Raf (Sigma), 1.5 units pyruvate kinase, 2.1 units lactate dehydrogenase, 1 mM phosphoenol pyruvate, 0.28 mM NADH, 30.1 nM MEK (SignalChem), and 1 mM ATP in assay buffer (100 mM Tris, pH 7.5, 15 mM MgCl2, 0.5 mM DTT, 0.1% octyl-glucoside, 0.002% (w/v) BSA, and 0.002% Triton X-100). Inhibition of A-Raf was measured by adding serial diluted test compound (final assay concentration of 1% DMSO). A decrease in absorption at 340 nm was monitored continuously for 6 h at 30° C. on a multi-mode microplate reader (BioTek). The reaction rate was calculated using the 4 to 5 h time frame. The reaction rate at each concentration of compound was converted to percent inhibition using controls (i.e., reaction with no test compound and reaction with a known inhibitor) and IC50 values were calculated by fitting a four-parameter sigmoidal curve to the data using Prism (GraphPad software).

[3] = target: T3, C-Raf kinase (Homo sapiens, UniProt P04049, Y340D/Y341D); assay: Biochemical assay for C-Raf.1 (coupled pyruvate kinase/lactate dehydrogenase); conditions: read-out: CRAF.1 IC50
T3 construct: Y340D,; GST (N); purchased Sigma
T3 sequence (P04049 307-648 Y340D/Y341D): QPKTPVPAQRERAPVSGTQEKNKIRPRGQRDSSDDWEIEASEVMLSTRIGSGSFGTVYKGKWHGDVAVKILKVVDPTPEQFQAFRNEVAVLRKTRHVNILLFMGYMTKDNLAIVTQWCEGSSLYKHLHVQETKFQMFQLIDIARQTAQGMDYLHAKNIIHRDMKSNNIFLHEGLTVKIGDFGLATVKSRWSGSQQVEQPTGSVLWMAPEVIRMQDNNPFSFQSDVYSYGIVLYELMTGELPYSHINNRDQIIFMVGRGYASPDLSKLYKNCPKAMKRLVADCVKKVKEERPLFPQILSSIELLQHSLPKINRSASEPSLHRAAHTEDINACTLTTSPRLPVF
Method: Biochemical Assay for C-Raf.1
as §1, with “C-Raf” for “A-Raf”, “NO: 3)” for “NO. 1)”, “0.43” for “5.55”

[4] = system: Miapaca-2 cells; assay: MiaPaca-2 cell proliferation assay (1), resazurin, 96-well; format: cell-based; conditions: Homo sapiens, MIA PaCa-2, inhibition of cell proliferation
Method: MiaPaca-2 Cell Proliferation Assay (1)
Miapaca-2 cells (catalog #CRL-1420) are obtained from the American Type Culture Collect (ATTC, Manassas, VA). Briefly, cells were grown in DMEM supplemented with 10% characterized fetal bovine serum (Invitrogen, Carlsbad, CA), 2.5% New Zealand sourced horse serum and 1% Penicillin/Streptomycin/L-Glutamine at 37° C., 5% CO2, and 95% humidity. Cells are expanded until reaching 70-95% confluency at which point they are subcultured or harvested for assay use. A serial dilution of test compound is dispensed into a 96-well black clear bottom plate in triplicate. Three thousand cells are added per well in 200 μL complete growth medium in the 96-well plate. Plates are incubated for 67-72 hours at 37° C., 5% CO2, and 95% humidity. At the end of the incubation, 40 μL of a 440 μM solution of resazurin (Sigma, St. Louis, MO) in PBS is added to each well of the plate and plates are incubated for an additional 5-6 hours at 37° C., 5% CO2, and 95% humidity. Plates are read on a Synergy2 or equivalent reader (Biotek, Winooski VT) using an excitation of 540 nm and an emission of 600 nm. Data is analyzed using Prism software (GraphPad, San Diego, CA) to calculate IC50 values.

[5] = target: T4, B-Raf kinase (Homo sapiens, UniProt P15056); assay: Biochemical assay for B-Raf.1 (coupled pyruvate kinase/lactate dehydrogenase); conditions: read-out: BRAF.1 IC50
T4 construct: GST (N); purchased Sigma
T4 sequence (P15056 416-766): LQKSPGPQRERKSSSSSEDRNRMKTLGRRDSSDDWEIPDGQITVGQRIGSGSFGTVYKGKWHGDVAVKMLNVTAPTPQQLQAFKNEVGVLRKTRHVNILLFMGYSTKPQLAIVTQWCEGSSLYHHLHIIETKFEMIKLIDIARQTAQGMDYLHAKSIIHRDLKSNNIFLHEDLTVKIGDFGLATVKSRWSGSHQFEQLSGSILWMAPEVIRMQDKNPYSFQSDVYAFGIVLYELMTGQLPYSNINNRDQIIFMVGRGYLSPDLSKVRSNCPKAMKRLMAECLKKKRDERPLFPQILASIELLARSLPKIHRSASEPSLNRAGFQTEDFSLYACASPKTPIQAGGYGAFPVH
Method: Biochemical Assay for B-Raf.1
Activity of B-Raf kinase (SEQ. ID NO: 2) was determined spectroscopically using a coupled pyruvate kinase/lactate dehydrogenase assay that continuously monitors the ATP hydrolysis-dependent oxidation of NADH (e.g., Schindler et al., Science, 2000, 289, 1938-1942). Assays were conducted in 384-well plates (100 μL final volume) using 0.13 nM B-Raf (Sigma), 1.5 units pyruvate kinase, 2.1 units lactate dehydrogenase, 1 mM phosphoenol pyruvate, 0.28 mM NADH, 30.1 nM MEK (SignalChem), and 1 mM ATP in assay buffer (100 mM Tris, pH 7.5, 15 mM MgCl2, 0.5 mM DTT, 0.1% octyl-glucoside, 0.002% (w/v) BSA, and 0.002% Triton X-100). Inhibition of B-Raf was measured by adding serial diluted test compound (final assay concentration of 1% DMSO). A decrease in absorption at 340 nm was monitored continuously for 6 h at 30° C. on a multi-mode microplate reader (BioTek). The reaction rate was calculated using the 4 to 5 h time frame. The reaction rate at each concentration of compound was converted to percent inhibition using controls (i.e., reaction with no test compound and reaction with a known inhibitor) and IC50 values were calculated by fitting a four-parameter sigmoidal curve to the data using Prism (GraphPad software).

[6] = system: A375 cells; assay: A375 cell proliferation assay (1), resazurin, 96-well; format: cell-based; conditions: Homo sapiens, A-375, inhibition of cell proliferation
Method: A375 Cell Proliferation Assay (1)
A375 cells (catalog (#CRL-1619) are obtained from the American Type Culture Collect (ATTC, Manassas, VA). Briefly, cells were grown in DMEM High Glucose supplemented with 10% characterized fetal bovine serum (Invitrogen, Carlsbad, CA) and 1% Penicillin/Streptomycin/L-Glutamine at 37° C., 5% CO2, and 95% humidity. Cells are expanded until reaching 70-95% confluency at which point they are sub-cultured or harvested for assay use. A serial dilution of test compound is dispensed into a 96-well black clear bottom plate in triplicate. Two thousand five hundred cells are added per well in 200 μL complete growth medium in the 96-well plate. Plates are incubated for 67-72 hours at 37° C., 5% CO2, and 95% humidity. At the end of the incubation, 40 μL of a 440 μM solution of resazurin (Sigma, St. Louis, MO) in PBS is added to each well of the plate and plates are incubated for an additional 5-6 hours at 37° C., 5% CO2, and 95% humidity. Plates are read on a Synergy2 or equivalent reader (Biotek, Winooski VT) using an excitation of 540 nm and an emission of 600 nm. Data is analyzed using Prism software (GraphPad, San Diego, CA) to calculate IC50 values.

T1 sequence (P15056 416-766 V600E): as the sequence (P15056 416-766) above, with V185E counted along it

SMILES | pIC50 [1] | pIC50 [2] | pIC50 [3] | pIC50 [4] | pIC50 [5] | pIC50 [6]
Cc1cc(F)c(NC(=O)NCCC2(C(F)(F)F)CC2)cc1-c1cc(N2CCOCC2)nc(N2CC[C@H](N(C)C)C2)c1 [Example 26] | ≥ 7.00 | < 6.00 | 6.30 to 7.00 | – | 6.30 to 7.00 | 5.00 to 6.00
CCNC(=O)Nc1cc(-c2cc(OCCO)nc(-c3ccnc(NC(=O)C4CC4)c3)c2)c(C)cc1F [Example 98] | ≥ 7.00 | < 6.00 | ≥ 7.00 | – | 6.30 to 7.00 | 5.00 to 6.00
COC1(CCNC(=O)Nc2cc(-c3ccnc(-c4ccnc(NC(=O)C5CC5)c4)c3)c(C)cc2F)CC1 [Example 116] | ≥ 7.00 | 6.30 to 7.00 | ≥ 7.00 | – | ≥ 7.00 | 5.00 to 6.00

Continued, values first:

pIC50 [1] | pIC50 [2] | pIC50 [3] | pIC50 [4] | pIC50 [5] | pIC50 [6] | SMILES
≥ 7.00 | < 6.00 | 6.30 to 7.00 | 5.00 to 6.00 | 6.30 to 7.00 | – | Cc1ccc(NC(=O)Nc2cnn(C(C)(C)C)c2)cc1-c1cc(OCCO)nc(N2CCOCC2)c1 [Example 44]
≥ 7.00 | < 6.00 | 6.30 to 7.00 | 5.00 to 6.00 | < 6.00 | – | Cc1ccc(NC(=O)Nc2cnn(CC(F)(F)F)c2)cc1-c1cc(OCCO)nc(N2CCOCC2)c1 [Example 45]
≥ 7.00 | < 6.00 | 6.30 to 7.00 | – | 6.30 to 7.00 | 5.00 to 6.00 | Cc1cc(F)c(NC(=O)NCCC2(C)CC2)cc1-c1nc(NCCO)cc(N2CCOCC2)n1 [Example 31]
≥ 7.00 | < 6.00 | ≥ 7.00 | – | 6.30 to 7.00 | 5.00 to 6.00 | Cc1ccc(NC(=O)N[C@@H]2CCc3ccccc32)cc1-c1cc(OCCO)nc(N2CCOCC2)c1 [Example 15]
≥ 7.00 | < 6.00 | ≥ 7.00 | – | ≥ 7.00 | 5.00 to 6.00 | Cc1ccc(NC(=O)NCCC2(C)CC2)cc1-c1cc(-c2cnn(C)c2)nc(N2CCOCC2)c1 [Example 37]
